In patent US7338932B2, “Methods of modulating functions of polypeptide GalNAc-transferases and of screening test substances to find agents herefor, pharmaceutical compositions comprising such agents and the use of such agents for preparing medicaments” (Glycozym APS, priority 2000, dated 2008):
Where two headings read alike, the source gives them in different places.

What was measured:
[1] = target: T1, secreted soluble GalNAc-T2 (sT2) (Homo sapiens, UniProt Q10471); assay: Direct binding ELISA to GalNAc-MUC1 glycopeptide, competitive inhibition, sT2
T1 construct: HIS-tagged secreted human GalNAc-T2 and -T4 were prepared from pAC-GP67-T2-sol and pAC-GP67-T4-sol cDNA; 6xHis (N); thrombin cleavage site (N); T7 tag (N); made in house; host or cells: High Five insect cells (baculovirus)
Description: (§1) Protein biotinylation was made as previously reported^62. The pH of 1 ml purified protein (0.3 mg/ml) in PBS was adjusted to pH 9 with 1 M NaOH and 40 μl N-hydroxy-succinimidobiotin (Sigma) dissolved in DMF (10 mg/ml) was added. The solution was mixed end-over-end for 2 hours at room temperature, and dialyzed three times against PBS and an equal volume of glycerol was added. The biotinylated proteins were stored at −20° C. in 50% glycerol until use.
(§2) Direct binding ELISA assay was developed as follows: Polystyrene microtiter plates (Maxisorb, Nunc, Denmark) were coated with peptides or enzymatically glycosylated glycopeptides in PBS overnight at 4° C. Plates were washed and blocked with 0.1% Tween20 and 0.2% BSA in PBS for 1 h at room temperature, followed by incubation with biotinylated proteins in PBS with 0.05% Tween20 for 2 h at room temperature. After four washes with PBS, plates were incubated with 1:2,000 dilution streptavidin-HRP (Sigma) in PBS for 30 min at room temperature and washed four times with PBS. Development was performed with 0.5 mg/ml o-phenylenediamine and 0.02% H2O2 at room temperature for 15 min, and reaction stopped by adding 100 μl/well of 0.5 N H2SO4. Competitive inhibition assays were done at end-point titers of GalNAc-transferase proteins with one hour preincubations with inhibitor.
(§3) In binding studies using lectins without biotinylation antibodies to the HIS-tag and the T7-tag, or in some experiments antibodies raised to GalNAc-T2 and -T4 enzymes were used to detect binding.

[2] = target: T2, GalNAc-T2 lectin domain (T2ld) (Homo sapiens, UniProt Q10471); assay: Direct binding ELISA to GalNAc-MUC1 glycopeptide, competitive inhibition, T2ld
T2 construct: made in house; host or cells: High Five insect cells (baculovirus, pAcGP67-A)
T2 sequence (Q10471 408-571): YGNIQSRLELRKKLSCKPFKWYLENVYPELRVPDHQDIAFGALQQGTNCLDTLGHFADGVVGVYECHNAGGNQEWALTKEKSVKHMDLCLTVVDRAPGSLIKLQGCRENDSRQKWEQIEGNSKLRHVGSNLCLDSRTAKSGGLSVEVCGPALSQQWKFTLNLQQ
Description: as §1, §2, §3

[3] = target: T3, secreted soluble GalNAc-T4 (sT4) (Homo sapiens, UniProt Q8N4A0); assay: Direct binding ELISA to GalNAc-MUC1 glycopeptide, competitive inhibition, sT4; conditions: binding to GalNAc-MUC1 glycopeptide
T3 construct: using the GalNAc-T4-sol construct that encodes residues 32-578 inserted into pT7T3U19; 6xHis (N); thrombin cleavage site (N); T7 tag (N); made in house; host or cells: High Five insect cells (baculovirus)
Description: as §1, §2, §3

[4] = target: Helix Pomatia lectin (HPA) (Helix pomatia, UniProt Q2F1K8); assay: Direct binding ELISA, competitive inhibition, Helix Pomatia lectin control; conditions: read-out: Concentration required for 50% inhibition (IC50), HPA; control plant lectin
Excerpt: Glycopeptides were purified by C-18 reverse phase HPLC. Peptides were custom synthesized by Neosystems (Strasbourg). Biotinylated Helix Pomatia lectin (HPA) was from KemEnTec (Denmark). Anti-MUC1 HMFG2 monoclonal antibody was a generous gift from Joyce Taylor-Papadimitriou. Anti-MUC1 SE5 monoclonal antibody was developed by immunizing Balb/c mice with 60-mer MUC1 tandem repeat peptide glycosylated with 5 moles GalNAc per repeat. Monoclonal antibodies to the lectin domains of human GalNAc-T2 and -T4 were developed as previously described^8, 63.
as §2
Inhibition experiments were used to further define the binding specificity of GalNAc-T2 and -T4 secreted soluble enzymes as well as lectin domains compared to Helix Pomatia lectin (Table VII).

[5] = target: T4, GalNAc-T3 (Homo sapiens, UniProt Q14435); assay: GalNAc-T3 transferase activities with UDP-GalNAc or UDP-Gal donor (EA2 acceptor, peptide panel); format: biochemical; conditions: peptide as acceptor substrate
T4 construct: Soluble, secreted expression constructs of human GalNAc-transferases GalNAc-T1, -T2, -T3, -T4, -T6, -T7, and -T11; made in house; host or cells: insect cells (baculovirus)
T4 sequence (Q14435 38-633 limits assumed): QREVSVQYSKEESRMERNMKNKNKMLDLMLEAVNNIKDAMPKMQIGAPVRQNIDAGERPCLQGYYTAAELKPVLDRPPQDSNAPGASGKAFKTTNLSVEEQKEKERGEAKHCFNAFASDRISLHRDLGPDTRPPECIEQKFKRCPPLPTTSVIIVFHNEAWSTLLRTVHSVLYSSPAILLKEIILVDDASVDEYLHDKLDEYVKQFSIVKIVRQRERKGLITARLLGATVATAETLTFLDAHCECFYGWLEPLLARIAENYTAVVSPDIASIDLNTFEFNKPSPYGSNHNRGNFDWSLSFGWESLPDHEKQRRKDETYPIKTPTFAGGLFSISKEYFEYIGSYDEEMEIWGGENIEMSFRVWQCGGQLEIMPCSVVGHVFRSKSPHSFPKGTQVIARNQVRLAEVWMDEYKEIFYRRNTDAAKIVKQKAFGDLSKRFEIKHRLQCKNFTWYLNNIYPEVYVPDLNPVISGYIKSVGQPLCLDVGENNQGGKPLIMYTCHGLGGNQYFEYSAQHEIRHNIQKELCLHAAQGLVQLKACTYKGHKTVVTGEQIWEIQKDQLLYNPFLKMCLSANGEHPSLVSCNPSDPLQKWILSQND
Description: (§4) Standard reaction mixtures (50 μl final volume) contained 25 mM cocadylate (pH 7.4), 10 mM MnCl2, 0.25% Triton X-100, 200 μM UDP-[^14C]-GalNAc (2,000 cpm/nmol) (Amersham), 200-500 μM acceptor peptides. Products were quantified by scintillation counting after chromatography on Dowex-1, octadecyl silica cartridges (Bakerbond), or HPLC (PC3.2/3 or mRPC C2/C18 SC2.1/10 Pharmacia, Smart System). […] Glycopeptides were purified on Supelclean LC-18 columns (1 ml, Supelco), and the number of GalNAc residues incorporated evaluated by MALDI-TOF mass spectrometry. The enzyme sources used were semipurified as previously described by successive sequential ion-exchange chromatographies on Amberlite (IRA95, Sigma) or DEAE Sephacel (Pharmacia), S-Sepharose Fast Flow (Pharmacia), and Mini-S™ (PC 3.2/3, Pharmacia) using the Smart System (Pharmacia) (28). Secreted GalNAc-T4 was obtained from a stably transfected CHO line (CHO/GalNA-T4/21A) (8) grown in roller bottles in HAMS F12 supplemented with 10% Fetal Bovine Serum. The experiments illustrated in FIG. 1 was performed with recombinant secreted GalNAc-T4 obtained from a stably transfected CHO line (8). Experiments illustrated in FIGS. 2 and 3 were performed with secreted GalNAc-T4 expressed in High Five cells grown in serum-free medium (8). Structural analysis of glycopeptides were performed by a combination of PFPA (pentafluoropropionic acid) hydrolysis and MALDI-TOF mass spectrometry as previously described (40). Secreted GalNAc-T7 was obtained from infected High Five™ cells grown in serum-free medium (Invitrogen) in upright roller bottles shaken 140 rpm in waterbaths at 27° C. GalNAc-T7 was not purified by Mini-S as the yields from cationic chromatography were low due to its low pI (6.4).
(§5) Galactosyl transferring activities of GalNAc-T1, -T2, and -T3, were assayed with a panel of acceptor peptides in standard reaction mixtures containing 100 μM UDP-Gal instead of UDP-GalNAc. […] Further, analysis was performed with 10 mM α-D-GalNAc-1-benzyl, αGlcNAc-benzyl, and fully occupied GalNAc-glycopeptide, GalNAC6TAP25, at 5 mM.

[6] = target: T5, GalNAc-T2 (Homo sapiens, UniProt Q10471); assay: GalNAc-T2 transferase activities with UDP-GalNAc or UDP-Gal donor (Muc2 acceptor, peptide panel); format: biochemical; conditions: peptide as acceptor substrate
T5 construct: Soluble, secreted expression constructs of human GalNAc-transferases GalNAc-T1, -T2, -T3, -T4, -T6, -T7, and -T11; made in house; host or cells: insect cells (baculovirus)
Description: as §4, §5

[7] = target: T6, GalNAc-T4 lectin domain (T4ld) (Homo sapiens, UniProt Q8N4A0); assay: Direct binding ELISA to GalNAc-MUC1 glycopeptide, competitive inhibition, T4ld
T6 construct: made in house; host or cells: High Five insect cells (baculovirus, pAcGP67-A)
Description: as §1, §2, §3

[8] = target: T7, GalNAc-T4 (Homo sapiens, UniProt Q8N4A0); assay: Inhibition of glycosylation dependent (GalNAc-glycopeptide) activity of GalNAc-T4, MALDI-TOF time-course; format: biochemical; conditions: […] free sugar
T7 construct: using the GalNAc-T4-sol construct that encodes residues 32-578 inserted into pT7T3U19; made in house; host or cells: High Five insect cells (baculovirus, pAcGP67)
Description: MALDI-TOF time-course in terminal reactions were performed in reactions of 25 μl containing 2.5 nmol acceptor (glyco)peptide, 40 nmol UDP-GalNAc, and 0.4 μg GalNAc-T4. Sampling of reactions (1 μl) were purified by nano-scale reversed-phase chromatography (Poros R3, PerSeptive Biosystem) and applied directly to the probe with matrix (41). The amount of GalNAc-transferase added was adjusted so that the reaction with the appropriate peptide was near completion in six hours. Reactions were incubated at 37° C. in a shaker bath. At times 0, 2 hours, and 16 hours a 1 μl aliquot was taken and purified. Mass spectra were acquired on either Voyager-DE mass spectrometer equipped with delayed extraction (Perseptive Biosystem Inc.). The matrix used was 2,5-dihydroxybenzoic acid (10 mg/ml, Hewlett-Packard) dissolved in a 2:1 mixture of 0.1% trifluoroacetic acid in 30% aqueous acetonitrile (Rathburn Ltd.).
Quantification of purified proteins was done by Coomassie stained SDS-PAGE and titration of immunoreactivity with the monoclonal antibody, UH6(4G2) (8). […] Wild-type GalNAc-T4 and mutant GalNAc-T4, GalNAc-T4^459H, were analysed with unglycosylated peptides (represented by PSGL-1) or GalNAc glycosylated glycopeptides (represented by GalNAc3TAP25V21) in reactions of 25 μl containing 2.5 nmol acceptor (glyco)peptide, 40 nmol UDP-GalNAc, and 0.4 μg GalNAc-T4. Time-course assays were motioned by MALDI-TOF. Sampling of reactions (1 μl) were purified by nano-scale reversed-phase chromatography (Poros R3, PerSeptive Biosystem) and applied directly to the probe with matrix. Evaluation of inhibition of the glycopeptide specificity of wild-type GalNAc-T4 with free sugars was performed to establish if the lectin domain recognized carbohydrate. […] Further, analysis was performed with 10 mM α-D-GalNAc-1-benzyl, αGlcNAc-benzyl, and fully occupied GalNAc-glycopeptide, GalNAc6TAP25, at 5 mM.

[9] = read-out: Concentration required for 50% inhibition (IC50), sT2
[10] = read-out: Concentration required for 50% inhibition (IC50), T2ld
[11] = read-out: Concentration required for 50% inhibition (IC50), sT4

## uridine diphospho-N-acetylgalactosamine [UDPαGalNAc]
[1]; [9]
  IC50: 65 mM
[2]; [10]
  IC50: > 100 mM
[3]; [11]
  IC50: 30 mM

## CC(=O)N[C@H]1[C@@H](Oc2ccccc2)O[C@H](CO)[C@H](O)[C@@H]1O [PhlαGalNAc]
[2]; [10]
  IC50: 15 mM
[4]
  IC50: 1 mM

## Muc2: acceptor peptide PTTTPISTTTMVTPTPTPTC derived from human intestinal mucin MUC2
[5]
  GalNAc-T3 activity with UDP-Gal by acceptor peptide: 0 nmol/min/mL
[6]
  GalNAc-T2 activity with UDP-Gal by acceptor peptide: 90 nmol/min/mL

## CC(=O)N[C@H]1[C@H](Oc2ccccc2[N+](=O)[O-])O[C@H](CO)[C@H](O)[C@@H]1O [oNPβGalNAc]
[2]
  IC50: > 12 mM
[4]
  IC50: > 20 mM
[3]
  IC50: 1 mM
[7]
  IC50: 8 mM

## CC(=O)N[C@H]1C(O)O[C@H](CO)[C@@H](O)[C@@H]1O (some centres unmarked) [GlcNAc]
[8]
  Inhibition of glycosylation dependent specificity of GalNAc-T4: failed to show significant inhibition
[1]; [9]
  IC50: > 100 mM
[2]; [10]
  IC50: > 100 mM
[4]
  IC50: 8 mM
[3]; [11]
  IC50: > 100 mM
[7]; read-out: Concentration required for 50% inhibition (IC50), T4ld
  IC50: > 100 mM

## CC(=O)N[C@H]1[C@H](Oc2ccc([N+](=O)[O-])cc2)O[C@H](CO)[C@H](O)[C@@H]1O [pNPβGalNAc]
[4]
  IC50: > 20 mM
[3]; [11]
  IC50: 0.8 mM

## COC1O[C@H](CO)[C@H](O)[C@H](O)[C@H]1O (single isomer, unassigned) [MeβGal]
[1]
  IC50: > 100 mM
[2]
  IC50: > 100 mM
[3]
  IC50: 40 mM
[7]
  IC50: > 100 mM
